In PubChem BioAssay (NCI):
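At the GI50, growth is halved. TGI marks complete inhibition of growth.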

How the values were obtained:
Assay in all cases: growth of human tumour cells (NCI), 384-well format
SN12C renal = tested on: SN12C renal
UACC-62 melanoma = tested on: UACC-62 melanoma
A498 renal = tested on: A498 renal
SK-MEL-2 melanoma = tested on: SK-MEL-2 melanoma
HL-60(TB) leukemia = tested on: HL-60(TB) leukemia
OVCAR-4 ovarian = tested on: OVCAR-4 ovarian
OVCAR-8 ovarian = tested on: OVCAR-8 ovarian
786-0 renal = tested on: 786-0 renal
SR leukemia = tested on: SR leukemia
SF-539 CNS = tested on: SF-539 CNS
HOP-92 NSCLC = tested on: HOP-92 NSCLC
HT29 colon = tested on: HT29 colon
CAKI-1 renal = tested on: CAKI-1 renal
SNB-75 CNS = tested on: SNB-75 CNS
T-47D breast = tested on: T-47D breast
A549 NSCLC = tested on: A549 NSCLC
MDA-MB-435 melanoma = tested on: MDA-MB-435 melanoma
SK-MEL-28 melanoma = tested on: SK-MEL-28 melanoma
SK-MEL-5 melanoma = tested on: SK-MEL-5 melanoma
SF-268 CNS = tested on: SF-268 CNS
DU-145 prostate = tested on: DU-145 prostate
NCI/ADR-RES ovarian = tested on: NCI/ADR-RES ovarian
TK-10 renal = tested on: TK-10 renal
HS 578T breast = tested on: HS 578T breast
MDA-MB-468 breast = tested on: MDA-MB-468 breast
MCF7 breast = tested on: MCF7 breast
UACC-257 melanoma = tested on: UACC-257 melanoma
NCI-H522 lung = tested on: NCI-H522 lung
COLO 205 colon = tested on: COLO 205 colon
PC-3 prostate = tested on: PC-3 prostate
EKVX NSCLC = tested on: EKVX NSCLC
NCI-H226 lung = tested on: NCI-H226 lung
BT-549 breast = tested on: BT-549 breast
SF-295 CNS = tested on: SF-295 CNS
HCT-15 colon = tested on: HCT-15 colon
OVCAR-3 ovarian = tested on: OVCAR-3 ovarian
SK-OV-3 ovarian = tested on: SK-OV-3 ovarian
OVCAR-5 ovarian = tested on: OVCAR-5 ovarian
HOP-62 NSCLC = tested on: HOP-62 NSCLC
M14 melanoma = tested on: M14 melanoma
MDA-MB-231 breast = tested on: MDA-MB-231 breast
MALME-3M melanoma = tested on: MALME-3M melanoma
NCI-H460 NSCLC = tested on: NCI-H460 NSCLC
NCI-H322M lung = tested on: NCI-H322M lung
CCRF-CEM leukemia = tested on: CCRF-CEM leukemia
SNB-19 CNS = tested on: SNB-19 CNS
IGROV1 ovarian = tested on: IGROV1 ovarian
KM12 colon = tested on: KM12 colon
U251 glioblastoma = tested on: U251 glioblastoma
RPMI-8226 leukemia = tested on: RPMI-8226 leukemia
SW-620 colon = tested on: SW-620 colon
NCI-H23 lung = tested on: NCI-H23 lung
RXF 393 renal = tested on: RXF 393 renal
MOLT-4 leukemia = tested on: MOLT-4 leukemia
HCC-2998 colon = tested on: HCC-2998 colon
ACHN renal = tested on: ACHN renal

CC(C)n1nc(-c2ccc3oc(N)nc3c2)c2c(N)ncnc21
GI50 (SN12C renal): 10.5 nM | TGI (SN12C renal): 1450 nM | GI50 (UACC-62 melanoma): 18.4 nM | TGI (UACC-62 melanoma): 78 nM | GI50 (A498 renal): < 10 nM | TGI (A498 renal): 22 nM | GI50 (SK-MEL-2 melanoma): 53.7 nM | TGI (SK-MEL-2 melanoma): 92.1 nM | GI50 (HL-60(TB) leukemia): 326 nM | TGI (HL-60(TB) leukemia): 3000 nM | GI50 (OVCAR-4 ovarian): 18.5 nM | TGI (OVCAR-4 ovarian): 56.7 nM | GI50 (OVCAR-8 ovarian): 40.1 nM | TGI (OVCAR-8 ovarian): 858 nM | GI50 (786-0 renal): 44.8 nM | TGI (786-0 renal): 1510 nM | GI50 (SR leukemia): 17.3 nM | TGI (SR leukemia): 63.5 nM | GI50 (SF-539 CNS): 32.8 nM | TGI (SF-539 CNS): 626 nM | GI50 (HOP-92 NSCLC): 20.2 nM | TGI (HOP-92 NSCLC): 190 nM | GI50 (HT29 colon): 44.5 nM | TGI (HT29 colon): 10400 nM | GI50 (CAKI-1 renal): 14.7 nM | TGI (CAKI-1 renal): 82.8 nM | GI50 (SNB-75 CNS): < 10 nM | TGI (SNB-75 CNS): 42 nM | GI50 (T-47D breast): < 10 nM | TGI (T-47D breast): < 10 nM | GI50 (A549 NSCLC): 17.9 nM | TGI (A549 NSCLC): 259 nM | GI50 (MDA-MB-435 melanoma): 26.4 nM | TGI (MDA-MB-435 melanoma): 152 nM | GI50 (SK-MEL-28 melanoma): 18.7 nM | TGI (SK-MEL-28 melanoma): 83.9 nM | GI50 (SK-MEL-5 melanoma): 13.8 nM | TGI (SK-MEL-5 melanoma): 45.8 nM | GI50 (SF-268 CNS): 40.8 nM | TGI (SF-268 CNS): 579 nM | GI50 (DU-145 prostate): 35.4 nM | TGI (DU-145 prostate): 2680 nM | GI50 (NCI/ADR-RES ovarian): 35.9 nM | TGI (NCI/ADR-RES ovarian): 402 nM | GI50 (TK-10 renal): 11.6 nM | TGI (TK-10 renal): 109 nM | GI50 (HS 578T breast): < 10 nM | TGI (HS 578T breast): 26.4 nM | GI50 (MDA-MB-468 breast): < 10 nM | TGI (MDA-MB-468 breast): 15.2 nM | GI50 (MCF7 breast): < 10 nM | TGI (MCF7 breast): 7120 nM | GI50 (UACC-257 melanoma): 51.4 nM | TGI (UACC-257 melanoma): 523 nM | GI50 (NCI-H522 lung): < 10 nM | TGI (NCI-H522 lung): 32.6 nM | GI50 (COLO 205 colon): 12.6 nM | TGI (COLO 205 colon): 64 nM | GI50 (PC-3 prostate): < 10 nM | TGI (PC-3 prostate): 85.3 nM | GI50 (EKVX NSCLC): 18.2 nM | TGI (EKVX NSCLC): 122 nM | GI50 (NCI-H226 lung): 10.2 nM | TGI (NCI-H226 lung): 62.7 nM | GI50 (BT-549 breast): 12.1 nM | TGI (BT-549 breast): 56.9 nM | GI50 (SF-295 CNS): 27.8 nM | TGI (SF-295 CNS): 380 nM | GI50 (HCT-15 colon): < 10 nM | TGI (HCT-15 colon): 11600 nM | GI50 (OVCAR-3 ovarian): 22.2 nM | TGI (OVCAR-3 ovarian): 1160 nM | GI50 (SK-OV-3 ovarian): < 10 nM | TGI (SK-OV-3 ovarian): 42 nM | GI50 (OVCAR-5 ovarian): 24.5 nM | TGI (OVCAR-5 ovarian): 603 nM | GI50 (HOP-62 NSCLC): 12.4 nM | TGI (HOP-62 NSCLC): 119 nM | GI50 (M14 melanoma): 14.7 nM | TGI (M14 melanoma): 165 nM | GI50 (MDA-MB-231 breast): 18.7 nM | TGI (MDA-MB-231 breast): 681 nM | GI50 (MALME-3M melanoma): < 10 nM | TGI (MALME-3M melanoma): < 10 nM | GI50 (NCI-H460 NSCLC): < 10 nM | TGI (NCI-H460 NSCLC): 1870 nM | GI50 (NCI-H322M lung): 14.2 nM | TGI (NCI-H322M lung): 2270 nM | GI50 (CCRF-CEM leukemia): 16.1 nM | TGI (CCRF-CEM leukemia): 258 nM | GI50 (SNB-19 CNS): 69.6 nM | TGI (SNB-19 CNS): 10600 nM | GI50 (IGROV1 ovarian): < 10 nM | TGI (IGROV1 ovarian): 26.6 nM | GI50 (KM12 colon): 21.7 nM | TGI (KM12 colon): 1840 nM | GI50 (U251 glioblastoma): 66.2 nM | TGI (U251 glioblastoma): 7220 nM | GI50 (RPMI-8226 leukemia): < 10 nM | TGI (RPMI-8226 leukemia): < 10 nM | GI50 (SW-620 colon): 113 nM | TGI (SW-620 colon): 3140 nM | GI50 (NCI-H23 lung): 74.3 nM | TGI (NCI-H23 lung): 1630 nM | GI50 (RXF 393 renal): 12.5 nM | TGI (RXF 393 renal): 50.3 nM | GI50 (MOLT-4 leukemia): 17.7 nM | TGI (MOLT-4 leukemia): 726 nM | GI50 (HCC-2998 colon): 15.3 nM | TGI (HCC-2998 colon): 5310 nM | GI50 (ACHN renal): 36.2 nM | TGI (ACHN renal): 347 nM
